Data on 53 compounds can be found in US20260097047A1, “Small molecule inhibitors of the ribosome biogenesis factor NVL2” (Board of Regents, The University of Texas System, priority 2023, published 2026).

SMILES strings stand for the structures. A value given as a limit tells only on which side of the number the result lay.

One experiment concerns HCT116 cells. As to the kind of experiment: Cell viability assay (CellTiter-Glo, 72 hours) in HCT116 human colorectal cancer cells. The experiment is classed as cell-based. Particulars: Homo sapiens, HCT-116; Table 3; HCT116, 72 hours; read-out: Activity. Put shortly:
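2,000 cells/well adhered overnight, then compound added by digital dispenser with DMSO normalized to 0.5%. Viability read after 72 h at 37 °C by ATP-based CellTiter-Glo luminescence. IC50 from ten-point curves baseline-corrected to vehicle, five-parameter asymmetric least-squares fit.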
On to `CC#CCN1C(=O)c2ccccc2Sc2cc(NC(=O)Nc3ccc(OC(F)F)cc3)ccc21` [Table 3: —CH2CCMe; 4-F2HCOPh; CH/CH, 1-(10-(But-2-yn-1-yl)-11-oxo-10,11-dihydrodibenzo[b,f][1,4]thiazepin-7-yl)-3-(4-(difluoromethoxy)phenyl) urea], for which the IC50 is < 0.5 µM.

The same experiment, now with this note: Homo sapiens, HCT-116; Table 4; HCT116, 72 hours; read-out: Activity.
For `CC#CCN1C(=O)c2ccccc2Sc2cc(NC(=S)Nc3ccc(OC(F)F)cc3)ccc21` [Table 4: —CH2CCMe; 4-F2HCOPh; CH, 1-(10-(But-2-yn-1-yl)-11-oxo-10,11-dihydrodibenzo[b,f][1,4]thiazepin-7-yl)-3-(4-(difluoromethoxy)phenyl)thiourea], the IC50 was < 0.5 µM.

The same experiment, now with this note: Homo sapiens, HCT-116; Table 5; HCT116, 72 hours; read-out: Activity.
For `CC#CCN1C(=O)c2ccccc2Sc2cc(Nc3cccnc3)ccc21` [10-(But-2-yn-1-yl)-7-(pyridin-3-ylamino)dibenzo[b,f][1,4]thiazepin-11 (10H)-one], the IC50 was < 0.5 µM.
Take `CCC/C=C/CN1C(=O)c2ccccc2Sc2cc(Nc3cnccn3)ccc21` [(E)-10-(Hex-2-en-1-yl)-7-(pyrazin-2-ylamino)dibenzo[b,f][1,4]thiazepin-11 (10H)-one]: the IC50 is < 0.5 µM.
For `CC#CCN1C(=O)c2ccccc2Sc2cc(Nc3ccnnc3)ccc21` [10-(But-2-yn-1-yl)-7-(pyridazin-4-ylamino)dibenzo[b,f][1,4]thiazepin-11 (10H)-one], the IC50 was < 0.5 µM.
Consider `CC#CCN1C(=O)c2ccccc2Sc2cc(Nc3nc(C)ccc3F)ccc21` [10-(But-2-yn-1-yl)-7-((3-fluoro-6-methylpyridin-2-yl)amino)dibenzo[b,f][1,4]thiazepin-11 (10H)-one], for which the IC50 is < 0.5 µM.
The same measure, in the same setting: the same measure for `CCC/C=C/CN1C(=O)c2ccccc2Sc2cc(Nc3nccc4ccccc34)ccc21` [(E)-10-(Hex-2-en-1-yl)-7-(isoquinolin-1-ylamino)dibenzo[b,f][1,4]thiazepin-11 (10H)-one]: < 0.5 µM; for `CCC/C=C/CN1C(=O)c2ccccc2Sc2cc(Nc3cc4ccccc4cn3)ccc21` [(E)-10-(Hex-2-en-1-yl)-7-(isoquinolin-3-ylamino)dibenzo[b,f][1,4]thiazepin-11 (10H)-one]: < 0.5 µM.
`CC#CCN1C(=O)c2ccccc2Sc2cc(Nc3nccc(C#N)c3C)ccc21` [2-((10-(But-2-yn-1-yl)-11-oxo-10,11-dihydrodibenzo[b,f][1,4]thiazepin-7-yl)amino)-3-methylisonicotinonitrile]: the IC50 is < 0.5 µM.
The same measure, in the same setting: the same measure for `CCC/C=C/CN1C(=O)c2ccccc2Sc2cc(Nc3nccnc3C#N)ccc21` [(E)-3-((10-(Hex-2-en-1-yl)-11-oxo-10,11-dihydrodibenzo[b,f][1,4]thiazepin-7-yl)amino) pyrazine-2-carbonitrile]: 0.5 to 1 µM.

The same experiment, now with this note: Homo sapiens, HCT-116; Table 6; HCT116, 72 hours; read-out: Activity.
Turning to `CC#CCN1C(=O)c2ccccc2Sc2cc(NC3CCCC3)ccc21` [Table 6: —CH2CCMe; cPent; CH/CH; S, 10-(But-2-yn-1-yl)-7-(cyclopentylamino)dibenzo[b,f][1,4]thiazepin-11 (10H)-one], the IC50 was < 0.5 µM.
With `CC#CCN1C(=O)c2ccccc2Sc2cc(NC3CC(CO)C3)ccc21` (centres unmarked) [Table 6: —CH2CCMe; 3-HOCH2-cBu; CH/CH; S, 10-(But-2-yn-1-yl)-7-((3-(hydroxymethyl)cyclobutyl)amino)dibenzo[b,f][1,4]thiazepin-11 (10H)-one], the IC50 is < 0.5 µM.

The experiment is the same for the next values; noted with them: Table 2; HCT116, 72 hours; read-out: Activity.
Turning to `CC#CCN1C(=O)c2ccccc2Sc2cc(NC(=S)N3CCCC3)ccc21`, the IC50 was < 0.5 µM.

Staying with this experiment, now noted: Table 4; HCT116, 72 hours; read-out: Activity.
Take `CC#CCN1C(=O)c2ccccc2Sc2cc(NC(=S)NC3COC3)ccc21` [Table 4: —CH2CCMe; oxetan-3-yl; CH]: the IC50 is < 0.5 µM.
On to `CC#CCN1C(=O)c2ccccc2Sc2cc(NC(=S)N[C@H]3C[C@@H](O)C3)ccc21` [Table 4: —CH2CCMe; cis-3-OH-cBu; CH], for which the IC50 is < 0.5 µM.
For the compound `CC#CCN1C(=O)c2ccccc2Sc2cc(NC(=S)Nc3ccc(OCF)cc3)cnc21` [Table 4: —CH2CCMe; 4-FH2COPh; N], the IC50 was < 0.5 µM.
Same read-out and setting: the value for `CC#CCN1C(=O)c2ccccc2Sc2cc(NC(=S)Nc3cccc(OCF)c3)cnc21` [Table 4: —CH2CCMe; 3-FH2COPh; N] was < 0.5 µM.
On to `CC#CCN1C(=O)c2ccccc2Sc2cc(NC(=S)NC3CC(COC)C3)cnc21` (centres unmarked) [Table 4: —CH2CCMe; 3-MeOCH2-cBu; N], for which the IC50 was < 0.5 µM.

Staying with this experiment, now noted: Table 5; HCT116, 72 hours; read-out: Activity.
Consider `Cc1cnc(C)c(Nc2ccc3c(c2)Sc2ccccc2C(=O)N3CC#CCl)n1`, for which the IC50 is < 0.5 µM.
Take `C#CCN1C(=O)c2ccccc2Sc2cc(Nc3nnccc3C)ccc21`: the IC50 is < 0.5 µM.
Still for that read-out and setting: the value for `C#CCN1C(=O)c2ccccc2Sc2cc(Nc3cccnn3)ccc21` was < 0.5 µM.
Still for that read-out and setting: the same measure for `C#CCN1C(=O)c2ccccc2Sc2cc(Nc3cccnn3)cnc21`: < 0.5 µM.

Staying with this experiment, now noted: Table 6; HCT116, 72 hours; read-out: Activity.
As to `CC#CCN1C(=O)c2ccccc2Sc2cc(NCCCO)ccc21` [Table 6: —CH2CCMe; (CH2)3OH; CH/CH; S], the IC50 is < 0.5 µM.
For `C#CCN1C(=O)c2ccccc2Sc2cc(NC3COC3)cnc21` [Table 6: —CH2CCH; oxetan-3-yl; CH/N; S], the IC50 was < 0.5 µM.
As for `C#CCN1C(=O)c2ccccc2Sc2cc(NC3CC(COC)C3)cnc21` (centres unmarked) [Table 6: —CH2CCH; 3-MeOCH2-cBu; CH/N; S], the IC50 was < 0.5 µM.

Still in this experiment, the particulars now being: Table 7; cell viability assay, CellTiter-Glo, 72 hours; scaffold drawing 42 with R^2, R^3, X/Y, Z; read-out: Activity.
Turning to `CC=CCN1C(=O)c2ccccc2Sc2cc(NC(=O)c3ccc4scnc4c3)ccc21`, the IC50 is < 0.5 µM.
Still for that read-out and setting: the same measure for `C#Cc1ccc(C(=O)Nc2ccc3c(c2)Sc2ccccc2C(=O)N3CCOC)cc1` [—(CH2)2OMe; 4-HCCPh; CH/CH; S]: 0.5 to 1 µM.
On to `COCCN1C(=O)c2ccccc2Sc2cc(NC(=O)c3ccc(Cl)c(Cl)c3)ccc21` [—(CH2)2OMe; 3,4-Cl2Ph; CH/CH; S], for which the IC50 was in the range of 1 to 5 µM.
Turning to `COCCN1C(=O)c2ccccc2Sc2cc(NC(=O)C3CC3)ccc21` [—(CH2)2OMe; cPr; CH/CH; S], the IC50 is 1 to 5 µM.
In the case of `COCCN1C(=O)c2ccc(F)cc2Sc2cc(NC(=O)c3ccoc3)ccc21` [—(CH2)2OMe; furan-3-yl; CF/CH; S], the IC50 was < 0.5 µM.

Staying with this experiment, now noted: Table 8; analogs of scaffold drawing 43 defined by R^2, R^3, X/Y, W; read-out: Activity (IC50 class, cell viability assay).
In the case of `CC#CCN1C(=O)c2ccccc2Sc2cc(NC(=O)CC3COC3)cnc21` [—CH2CCMe; (oxetan-3-yl)CH2; CH/CH; N], the IC50 was < 0.5 µM.
Turning to `CC#CCN1C(=O)c2ccc(Cl)cc2Sc2cc(NC(=O)CC3COC3)cnc21` [—CH2CCMe; (oxetan-3-yl)CH2; CCl/CH; N], the IC50 is < 0.5 µM.
The same measure, in the same setting: the same measure for `CC#CCN1C(=O)c2ccccc2Sc2cc(NC(=O)c3ccoc3)ccc21` [—CH2CCMe; furan-3-yl; CH/CH; CH]: < 0.5 µM; for `COCC1CC(C(=O)Nc2cnc3c(c2)Sc2cc(Cl)ccc2C(=O)N3CC#CCl)C1` (centres unmarked) [—CH2CCCl; 3-MeOCH2-cBu; CCI/CH; N]: < 0.5 µM; for `CC#CCN1C(=O)c2ccccc2Sc2cc(NC(=O)C34CC(OC)(C3)C4)cnc21`: < 0.5 µM.
With `CC#CCN1C(=O)c2ccccc2Sc2cc(NC(=O)C3CC4(CC(=NOC)C4)C3)cnc21` (centres unmarked), the IC50 was < 0.5 µM.
Still for that read-out and setting: the same measure for `CC#CCN1C(=O)c2cc(F)ccc2Sc2cc(NC(=O)C3CCOC3)cnc21` (centres unmarked) [—CH2CCMe; tetrahydrofuran-3-yl; CH/CF; N]: < 0.5 µM; for `O=C(Nc1ccc2c(c1)Sc1ccccc1C(=O)N2CC#CC1CC1)C1CC2(COC2)C1`: < 0.5 µM; for `CC#CCN1C(=O)c2cc(F)ccc2Sc2cc(NC(=O)c3ccc(OC)cc3)ccc21` [—CH2CCMe; 4-MeOPh; CH/CF; CH]: < 0.5 µM.
As for `CO[C@H]1C[C@H](C(=O)Nc2ccc3c(c2)Sc2ccc(F)cc2C(=O)N3CC#CCl)C1` [—CH2CCCl; trans-3-MeOcBu; CH/CF; CH], the IC50 was < 0.5 µM.
On the same count and under the same terms, the same measure for `C#CCN1C(=O)c2ccc(Cl)cc2Sc2cc(NC(=O)C3CC4(CC(=NOC)C4)C3)cnc21` (centres unmarked): < 0.5 µM.
Still for that read-out and setting: the same measure for `CC#CCN1C(=O)c2cc(F)ccc2Sc2cc(NC(=O)C3CC4(CC(=NO)C4)C3)cnc21` (centres unmarked): < 0.5 µM.
The same measure, in the same setting: the value for `CC#CCN1C(=O)c2ccc(F)cc2Sc2cc(NC(=O)[C@@H]3C[C@H]3COC)cnc21` (relative stereo) [—CH2CCMe; trans-2-MeOCH2-cPr; CF/CH; N] was < 0.5 µM; that for `CC#CCN1C(=O)c2ccccc2Sc2cc(NC(=O)C#CCOC)ccc21` [—CH2CCMe; CCCH2OMe; CH/CH; CH] was 0.5 to 1 µM; that for `CC#CCN1C(=O)c2cc(F)ccc2Sc2cc(NC(=O)C3CC4(COC4)C3)ccc21` was < 0.5 µM.

Still in this experiment, the particulars now being: Table 9; HCT116, 72 hours; read-out: Activity.
With `CC#CCN1C(=O)c2ccccc2Cc2cc(NC(=O)C34CC(O)(C3)C4)ccc21`, the IC50 is < 0.5 µM.
Consider `C#CCN1C(=O)c2ccccc2C(C#N)c2cc(NC(=O)[C@H]3C[C@@H](OC)C3)ccc21` (stereo partly drawn) [Table 9: —CH2CCH; cis-3-MeOcBu; CHCN], for which the IC50 is < 0.5 µM.
Regarding `CC#CCN1C(=O)c2ccccc2C(C)c2cc(NC(=O)C3CC4(CC(=O)C4)C3)ccc21` (centres unmarked), the IC50 is < 0.5 µM.
As to `CC#CCN1C(=O)c2ccccc2C(C)c2cc(NC(=O)CCCO)ccc21` (centres unmarked) [Table 9: —CH2CCMe; (CH2)3OH; CHMe], the IC50 was < 0.5 µM.
The same measure, in the same setting: the same measure for `CC1c2ccccc2C(=O)N(CC#CC2CC2)c2ccc(NC(=O)C3CCOC3)cc21` (centres unmarked): < 0.5 µM.
With `CO[C@H]1C[C@@H](C(=O)Nc2ccc3c(c2)C(C)(O)c2ccccc2C(=O)N3CC#CCl)C1` (stereo partly drawn) [Table 9: —CH2CCCl; cis-3-MeOcBu; CMeOH], the IC50 was < 0.5 µM.

Still in this experiment, the particulars now being: cell viability assay; Table 10 analogs of scaffold drawing 45 defined by R2, R3, X/Y, W; read-out: Activity.
Consider `CC#CCN1C(=O)c2ccc(Cl)cc2Sc2cc(NC(=O)C3CC4(CC(O)C4)C3)ccc21` (centres unmarked), for which the IC50 was < 0.5 µM.
Turning to `CO[C@H]1C[C@H](C(=O)Nc2cnc3c(c2)Sc2ccccc2C(=O)N3CC#CC2CC2)C1` [—CH2CCcPr; trans-3-MeOcBu; CH/CH; N], the IC50 was < 0.5 µM.
